From US6590140B1, “Metal-regulated transporters and uses therefor” (Trustees of Dartmouth College, priority 1996, dated 2003) come the findings set out here.

Test [1] concerns the target T1, high affinity zinc uptake system (Zrt1p) (Saccharomyces cerevisiae, UniProt P32804).
T1 construct: endogenous in cells; host or cells: S. cerevisiae DY1457 (wild type, zinc-limited) and ZHY2 (zrt2); one kinetic value comes from ZHY1 carrying pOE1 (ZRT1 ORF under the GAL1 promoter)
The experiment in a line: 65Zn uptake assay in yeast, high affinity zinc uptake system. The test is classed as cell-based. On the procedure:
(§1) Zinc uptake assays were performed as described previously for iron uptake (Eide et al. J. Biol. Chem. 267:20774-20781) except that ^65ZnCl2 (Amersham Corp., Arlington Heights, Ill.) and LZM-EDTA were substituted for ^59FeCl3 and LIM-EDTA. Cells were incubated at 30° C. with ^65Zn for five minutes, filtered, and washed with 10 ml ice-cold SSW. Cell-associated radioactivity was measured by liquid scintillation. Kinetic values were derived using KinetAsyst software (IntelliKinetics, Princeton, N.J.). Zinc accumulation was measured in cells grown in LZM medium supplemented with […] ^65Zn plus nonradioactive zinc to the indicated final concentration. Aliquots (0.5 ml) were filtered, washed with 10 ml ice-cold SSW, and counted by liquid scintillation. b-galactosidase activity was assayed as described by Guarente (Guarante, L. (1983) Methods Enzymol101:181-191).
(§2) Zinc uptake assays were performed as described previously for iron uptake (Eide et al. (1992) J. Biol. Chem. 267:20774-20781) except that ^65ZnCl2 (Amersham) and LZM-EDTA were substituted for ^59FeCI3 and LIM-EDTA, respectively. Cells were incubated for 5 minutes in LZM-EDTA plus the indicated concentration of ^65Zn, collected on glass fiber filters (Schleicher and Schuell), washed with 10 ml ice-cold SSW (1 mM EDTA, 20 mM trisodium citrate, 1 mM KH2PO4, 1 mM CaCl2, 5 mM MgSO4, 1 mM NaCl pH 4.2), and cell-associated radioactivity was measured by liquid scintillation counting. Cells were starved for glucose by incubating them in LZM-EDTA prepared without glucose for one hour at 30° C. prior to assay. Michaelis-Menten kinetic values were determined using […] software (Intellikinetics, Princeton, N.J.). Stock solutions of the chloride salts of Co, Cu, Mg, Mn, and Ni were prepared in distilled water at a concentration of 100 mM. The nonradioactive ZnCl2 stock was prepared at 100 mM in 0.02 N HCl and the FeCl3 stock was prepared at 50 mM in 0.1 N HCl. The statistical significance of the differences of values relative to controls was determined with one-way analysis of variance (ANOVA) followed by a Dunnett multiple comparison test. β-galactosidase activity was assayed in cells harvested at an OD600 of 0.5-2.0 as described by Guarente (Guarente, L. (1983) Methods Enzymol. 101:181-191) and activity is expressed as the change in absorbance at 420 nm×1000 divided by (min×ml of culture used×OD600 of the culture). Cell-associated zinc was measured in parallel cultures supplemented with tracer amounts of ^65Zn (10 μM) and nonradioactive zinc to the indicated final concentration. Aliquots (0.5 ml) were filtered, washed with 10 ml ice-cold SSW, and radioactivity measured by liquid scintillation.
(§3) To determine if ZRT1 plays a role in zinc uptake, the biochemical properties of this process in wild type cells were first characterized. […] Wild type (FIG. 10, DY1457, squares) and zrt1 mutant (FIG. 10, ZHY1, circles) cells were grown to exponential phase in zinc-limited (open symbols, FIG. 10) and zinc-replete (FIG. 10, closed symbols) media and assayed for zinc uptake rate over a range ZnSO4 concentrations. Zinc-limited media was LZM+10 μM zinc for the wild type and LZM+500 μM zinc for the mutant. Zinc-replete conditions were LZM+1000 μM for both strains. ZHY1(pOE1) cells (FIG. 10, triangles) were grown in zinc-replete SDgal medium.
(§4) Mutant zrt1 (ZHY1) cells were grown in LZM supplemented with 1 mM ZnCl2. Cells were incubated with 10 μM ^65Zn for the indicated times at either […]

The target in test [2] is T2, low affinity zinc uptake system (Zrt2p) (Saccharomyces cerevisiae, UniProt Q12436).
T2 construct: endogenous in cells; host or cells: S. cerevisiae ZHY1 (zrt1::LEU2) and zinc-replete DY1457; some values come from ZHY1 carrying pMC4 (multicopy genomic ZRT2) or pOE2 (ZRT2 ORF under GAL1)
T2 sequence (Q12436 whole entry): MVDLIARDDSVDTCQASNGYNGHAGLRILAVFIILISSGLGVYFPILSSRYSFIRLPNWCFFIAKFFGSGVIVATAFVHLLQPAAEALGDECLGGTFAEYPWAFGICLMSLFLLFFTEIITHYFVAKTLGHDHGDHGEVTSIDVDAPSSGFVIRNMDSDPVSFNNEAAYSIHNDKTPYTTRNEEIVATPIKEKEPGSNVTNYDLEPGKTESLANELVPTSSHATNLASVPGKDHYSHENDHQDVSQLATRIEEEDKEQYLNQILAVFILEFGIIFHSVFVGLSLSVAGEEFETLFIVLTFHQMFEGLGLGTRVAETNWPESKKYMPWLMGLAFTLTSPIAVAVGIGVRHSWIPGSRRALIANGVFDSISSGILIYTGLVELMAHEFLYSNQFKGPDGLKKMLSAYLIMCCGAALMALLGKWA
In kind it is cell-based. As for the experimental part: as §1, §2, §3, §4

Test [3] has as its target T3, IRT1 (Arabidopsis thaliana, UniProt Q38856).
T3 construct: contain a single 1017 bp open reading frame capable of encoding a polypeptide of 339 amino acids; expressed in transfected cells; host or cells: S. cerevisiae fet3 fet4 strain DEY1453 carrying pIRT-1 (pFL61 library vector, phosphoglycerate kinase promoter)
T3 sequence (Q38856 9-347 limits assumed): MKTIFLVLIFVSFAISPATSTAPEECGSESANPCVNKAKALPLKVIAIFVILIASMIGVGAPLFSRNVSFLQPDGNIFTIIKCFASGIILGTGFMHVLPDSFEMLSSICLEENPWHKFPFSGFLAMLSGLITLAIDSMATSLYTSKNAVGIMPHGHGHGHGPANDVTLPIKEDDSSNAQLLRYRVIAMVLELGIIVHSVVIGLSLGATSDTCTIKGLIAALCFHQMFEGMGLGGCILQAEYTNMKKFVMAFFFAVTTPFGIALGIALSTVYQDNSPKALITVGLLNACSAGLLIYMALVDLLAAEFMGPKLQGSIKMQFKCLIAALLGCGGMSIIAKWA
The experiment in a line: 55Fe uptake in fet3 fet4 yeast expressing IRT1. The test is classed as cell-based. To be noted: for effect on the rate of iron uptake by IRT1: 10 μM metal, 10 times the radiolabeled iron, Fe(II) with 1 mM ascorbate, 10 min. On the procedure:
Iron uptake assays using ^55FeCl3 (Amersham, Arlington Heights, Ill.) were performed as described (Eide, D. et al. (1992) J. Biol. Chem. 267: 20774-20781) except that MGN (10 mM Mes/2% glucose/1 mM nitrilotriacetic acid, pH 6.1) was used for the assay buffer. Where noted, 1 mM sodium ascorbate was added to reduce Fe(III) to Fe(II). Stock solutions of the chloride salt of each metal (except for iron) were prepared in water at a concentration of 100 mM and diluted into MGN to a final concentration of 10 μM before addition of the cells. The ^56FeCl3 stock was 50 mM prepared in 0.1 M HCl. The statistical significance of differences in values relative to controls was determined using STATVIEW software (Abacus Concepts, Berkeley, Calif.). Data was subjected to one-way analysis of variance (ANOVA) followed by a Scheffe's test.
To determine if IRT1 encodes an iron transporter, ^55Fe uptake rates were examined in a fet3 fet4 strain expressing IRT1. Little or no uptake was detected at 0° C. for either IRT1-expressing or untransformed control cells (FIG. 2A). The fet3 fet4 mutant strain DEY1453 (circles) and DEY1453 transformed with pIRT-1 (squares) were grown to exponential phase in SD glucose and assayed for iron uptake with ^55Fe. (A) Time- and temperature-dependence of iron accumulation assayed in MGN with 1 mM ascorbate and 5 μM ^55FeCl3 assayed at 30° C. (open symbols) or 0° C. (solid symbols). The dashed line marked with open triangles represents the IRT1-dependent accumulation, i.e., the accumulation of iron by the untransformed strain at 30° C. subtracted from the accumulation of the pIRT-1-bearing strain at 30° C. […] The IRT1-dependent rate was ≈3-fold higher than the control uptake rate. No increased uptake was apparent in strains bearing either of two randomly selected clones from the library, indicating the dependence of these uptake effects on expression of IRT1. The iron uptake activity dependent on IRT1 expression was also concentration-dependent and saturable (FIG. 2B). The same strains as in A were assayed for iron uptake rates for 10 min over a range of concentrations. The dashed lines marked with open triangles represents the IRT1-dependent uptake rate, i.e., background uptake rate of the untransformed strain subtracted from the corresponding rate of the pIRT-1-bearing strains. (Inset) Eadie-Hofstee plot of the IRT1-dependent uptake data. Each point represents the mean of three experiments each performed in duplicate. The standard deviation within each experiment was less that 20% of the corresponding mean.
The experiments described above were conducted with iron supplied as Fe(II), i.e., in the presence of ascorbate, an agent capable of reducing Fe(III) to Fe(II). To determine if Fe(II) is the preferred substrate over Fe(III), assays were carried out in the absence of ascorbate where iron is supplied to the cells as Fe(III). […] The fet3 fet4 mutant strain DEY1453 and DEY1453 transformed with pIRT-1 were grown to exponential phase is SD glucose and assayed for iron uptake with 1 μM FeCl3 in MGN for 10 min. The values shown are the IRT1-dependent rates, i.e., the untransformed strain control values were subtracted from the DEY1453 pIRT-1 values and represent the means of four replicates. The asterisks indicate significant of differences from the control values (P<0.05). Assays were performed in the absence [Fe(III)] or presence [Fe(II)] of 1 mM ascorbate. […] Although yeast are capable of reducing Fe(III) to Fe(II) through the action of plasma membrane Fe(III) reductases, this rate of cell-mediated reduction is slower than reduction by ascorbate and therefore may be rate-limiting for IRT1-dependent uptake. To assess if metals other than iron are potential substrates for IRT1, several transition metals were tested for their ability to inhibit accumulation of iron in IRT1-expressing cells (FIG. 3B). Assays were conducted in the absence (−) or presence of 10 μM metal. […]

The subject of test [4] is zrt1 mutant (ZHY1) cells. In kind it is cell-based, Saccharomyces cerevisiae. To be noted: 500 μM metal added to iron-limiting medium LIM (1 mM EDTA). As for the experimental part:
Strains used were DY1457 (MATα ade6 can1 his3 leu2 trp1 ura3) and ZHY1 (MaTα ade6 can1 his3 leu2 trp1 ura3 zrt1:: LEU2). Yeast were grown in standard culture media (SD, YPD) (Eide, D., Davis-Kaplan S., Jordan, I., Sipe, D., and Kaplan, J. (199: 2) J. Biol. Chem. 267, 20774-20781) supplemented with necessary auxotrophic requirements and either 2% glucose or 2% galactose. A zinc-limiting medium (LZM) was prepared in the same manner as LIM (Eide and Guarenete (1992) J. Gen. Microbiol. 138:347-354) except that […]. Cell number in liquid cultures was determined by measuring the optical density of cell suspensions at 600 nm (A600) and converting to cell number with a standard curve.
Strains used were DY1457 (MATα ade6 can1 his3 leu2 trp1 ura3), ZHY1 (AMTα ade6 can1 his3 leu2 trp1 ura3 zrt1::LEU2), ZHY2 (MATα ade6 can1 his3 leu2 trp1 ura3 zrt2::HIS3), and ZHY3 (MATα ade6 can1 his3 leu2 trp1 ura3 zrt1::LEU2 zrt2::HIS3). Yeast were grown in YP or SD media (Sherman et al. (1986) Methods in Yeast Genetics, Cold Spring Harbor Laboratory, Cold Spring Harbor, N.Y.) supplemented with necessary auxotrophic requirements and either 2% glucose or 2% galactose. Zinc-limiting YP and SD agar plates contained either bathophenanthroline disulfonate (BPS, 200 μM) or EDTA (1 mM), respectively. A liquid zinc-limiting medium (low zinc medium, LZM) was prepared in the same manner as low iron medium (LIM) (Eide and Guarente (1992) J. Gen. Microbiol. 138:347-354) except that the […]. LZM is similar in composition to SD medium with two modifications essential to controlling zinc availability. First, 1 mM EDTA is added to provide buffering for the concentration of free metal ions. Second, the medium is pH-buffered at 4.2 with 20 mM citrate to prevent pH changes that could alter the metal binding ability of EDTA. LZM was also prepared without EDTA ([…]) which is less zinc-limiting because the predominant chelator in this medium, citrate, binds zinc with less affinity than does EDTA. The concentrations of free (i.e. unchelated) zinc were calculated using MAXCHELATOR software (Chris Patton, Stanford University). Cell number in liquid cultures was determined by measuring the absorbance of cell suspensions at 600 nm (OD600) and converting to cell number with a standard curve.
To examine the function of ZRT1, a disruption mutation, zrt1::LEU2, was constructed by inserting the LEU2 gene into the center of ZRT1 (FIG. 6). This zrt1 disruption allele was then introduced into a haploid yeast strain. […] Because of the high EDTA concentration in LIM (1 mM), this medium is expected to have low available levels of other metals that are bound tightly by this chelator. Supplements of other metals were tested for improved growth of the zrt1 mutant in LIM. […] To study this effect further, a low zinc medium, LZM, was developed in which cell growth could be limited by zinc deficiency and the growth response of the wild type and zrt1 mutant strains to increasing levels of supplemented zinc was examined. Wild type (DY1457, squares) and zrt1 mutant (ZHY1, circles) cells were inoculated into LZM supplemented with the indicated amount of ZnSO4 and grown for 16 hours prior to cell number determination. […] Mutant zrt1 cells attained this same maximum number of cell divisions only with zinc supplements of 750 μM or more, i.e. a 75-fold increase in the zinc requirement of the zrt1 mutant compared to the wild type.
To further assess the role of the low affinity system as a source of zinc, growth of wild type and zrt2 cells in a zinc-limiting medium, LZM, supplemented with increasing amounts of zinc was examined. The same strains as in FIG. 15 were grown for six hours in SD glucose medium, harvested, washed in LZM, and reinoculated into either LZM (FIG. 15A) or LZM-EDTA (FIG. 15B) supplemented with the indicated concentrations of ZnCl2 ([Zn]T). […]

The mark [5] stands for this setting: 1 mM ascorbate, control experiments.

Entries after “also recorded” stand apart in the source; their conditions may differ.

T1 sequence (P32804 whole entry): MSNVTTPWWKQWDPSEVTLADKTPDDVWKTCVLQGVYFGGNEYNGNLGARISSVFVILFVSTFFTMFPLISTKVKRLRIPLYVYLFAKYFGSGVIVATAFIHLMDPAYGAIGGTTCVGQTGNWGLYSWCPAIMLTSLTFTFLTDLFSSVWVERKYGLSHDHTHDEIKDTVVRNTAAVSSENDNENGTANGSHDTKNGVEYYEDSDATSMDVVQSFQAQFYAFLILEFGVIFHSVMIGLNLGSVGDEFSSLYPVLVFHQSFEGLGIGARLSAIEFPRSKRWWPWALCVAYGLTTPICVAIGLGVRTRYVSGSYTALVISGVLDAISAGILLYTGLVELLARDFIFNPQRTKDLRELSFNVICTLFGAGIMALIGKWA

Regarding `O=C1O[C@H]([C@@H](O)CO)C([O-])=C1O.[Na+]` [ascorbate, sodium ascorbate, reference compound], the “effect on the rate of zinc uptake” value in test [1] (setting [5]) and in test [2] (setting [5]) was “no effect” each time.
Consider `[K+]` [K^+], for which the “inhibition of zinc uptake by the low affinity system” value in test [2] (high extracellular K+ (100 mM)) is given as “not inhibited”.
For `[Cl][Cd][Cl]` [Cd], in test [3], the “inhibition of IRT1-mediated Fe(II) uptake in yeast (summary statement)” value is recorded as “inhibitors of IRT1-mediated Fe(II) uptake; also recorded: strongly inhibited” and the “effect on the rate of iron uptake by IRT1” value is “potent inhibitors”.
Turning to `[Cl-].[Cl-].[Sr+2]` [Sr], in test [3], the “effect on the rate of iron uptake by IRT1” value is given as “no significant effect”.
For `[Cl-].[Cl-].[Mg+2]` [Mg], the “effect on zrt1 growth in LIM” value in test [4] is on record as “no effect”. Besides, the “effect on zinc uptake by the high affinity system” value in test [1] (20 μM added metal, 2 μM 65Zn, five minutes, zinc-limited wild type) was “unaffected”. Moreover, the “effect on zinc uptake by the low affinity system” value in test [2] (200 μM added metal, 20 μM 65Zn, five minutes, zrt1 mutant cells) is reported as “did not diminish zinc uptake”.
